Counter-ions that a name gives are not always drawn. Like-named read-outs stand apart in the source and are kept apart here.
System: gastric acid secretion
Test: animal or person
Format: in vivo, dog
Settings: Canis lupus familiaris, iv
[1] = 24 h, read-out: Persistency of inhibitory effect against gastric acid secretion (%)
[2] = read-out: Inhibitory effect against gastric acid secretion (%)

**Q.** `Cc1c(OCCC2(C)OCCCO2)ccnc1C[S+]([O-])c1nc2ccccc2[nH]1` (stereo not drawn) [Example 30, 2-(((3-methyl-4-(2-(2-methyl-1,3-dioxan-2-yl)ethoxy)pyridin-2-yl)methyl)sulfinyl)-1H-benzimidazole sodium salt] was tested. Which inhibition in vivo at 0.8 mg/kg [1] did it give?
**A.** 63%

**Q.** What about the inhibition in vivo at 1.6 mg/kg [1] of the same compound?
**A.** 95%

**Q.** What about the inhibition in vivo at 0.8 mg/kg [2] of the same compound?
**A.** 100%

**Q.** What about the inhibition in vivo at 1.6 mg/kg [2] of the same compound?
**A.** 100%

**Q.** `Cc1c(OCCC2COC3(CCC3)OC2)ccnc1C[S+]([O-])c1nc2ccccc2[nH]1` (stereo not drawn) [Example 31, 2-(((4-(2-(5,9-dioxaspiro[3.5]non-7-yl)ethoxy)-3-methylpyridin-2-yl)methyl)sulfinyl)-1H-benzimidazole sodium salt] was tested. Which inhibition in vivo at 1.6 mg/kg [1] did it give?
**A.** 97%

**Q.** And the inhibition in vivo at 1.6 mg/kg [2]?
**A.** 100%

**Q.** For `Cc1c(OCC2OCCCO2)ccnc1C[S+]([O-])c1nc2ccccc2[nH]1` (stereo not drawn) [Example 32, 2-(((4-(1,3-dioxan-2-ylmethoxy)-3-methylpyridin-2-yl)methyl)sulfinyl)-1H-benzimidazole sodium salt], which inhibition in vivo at 1.6 mg/kg [1] is on record?
**A.** 83%

**Q.** And the inhibition in vivo at 1.6 mg/kg [2]?
**A.** 100%

**Q.** With `Cc1c(OCC2(C)OCCCO2)ccnc1C[S+]([O-])c1nc2ccccc2[nH]1` (stereo not drawn) [Example 33, 2-(((3-methyl-4-((2-methyl-1,3-dioxan-2-yl)methoxy)pyridin-2-yl)methyl)sulfinyl)-1H-benzimidazole sodium salt] as the compound, how does the inhibition in vivo at 1.6 mg/kg [1] read?
**A.** 84%

**Q.** What about the inhibition in vivo at 1.6 mg/kg [2] of the same compound?
**A.** 100%

**Q.** `Cc1c(OCCC2(C)OCC(C)(C)CO2)ccnc1C[S+]([O-])c1nc2ccccc2[nH]1` (stereo not drawn) [Example 34, 2-(((3-methyl-4-(2-(2,5,5-trimethyl-1,3-dioxan-2-yl)ethoxy)pyridin-2-yl)methyl)sulfinyl)-1H-benzimidazole sodium salt] was tested. Which inhibition in vivo at 1.6 mg/kg [1] did it give?
**A.** 78%

**Q.** What about the inhibition in vivo at 1.6 mg/kg [2] of the same compound?
**A.** 100%

**Q.** With `COCC1(CCOc2ccnc(C[S+]([O-])c3nc4ccccc4[nH]3)c2C)OCCCO1` (stereo not drawn) [Example 36, 2-(((4-(2-(2-(methoxymethyl)-1,3-dioxan-2-yl)ethoxy)-3-methylpyridin-2-yl)methyl)sulfinyl)-1H-benzimidazole sodium salt] as the compound, how does the inhibition in vivo at 1.6 mg/kg [1] read?
**A.** 90%

**Q.** What about the inhibition in vivo at 1.6 mg/kg [2] of the same compound?
**A.** 100%

**Q.** For `CCC1(CCOc2ccnc(C[S+]([O-])c3nc4ccccc4[nH]3)c2C)OCCO1` (stereo not drawn) [Example 39, 2-(((4-(2-(2-ethyl-1,3-dioxolan-2-yl)ethoxy)-3-methylpyridin-2-yl)methyl)sulfinyl)-1H-benzimidazole sodium salt], which inhibition in vivo at 1.6 mg/kg [1] is on record?
**A.** 86%

**Q.** What about the inhibition in vivo at 1.6 mg/kg [2] of the same compound?
**A.** 100%

**Q.** Which results are given for `CCC1(COc2ccnc(C[S+]([O-])c3nc4ccccc4[nH]3)c2C)OCCO1` (stereo not drawn) [Example 40, 2-(((4-((2-ethyl-1,3-dioxolan-2-yl)methoxy)-3-methylpyridin-2-yl)methyl)sulfinyl)-1H-benzimidazole sodium salt]?
**A.** inhibition in vivo at 0.8 mg/kg [1]: 66%; inhibition in vivo at 1.6 mg/kg [1]: 92%; inhibition in vivo at 0.8 mg/kg [2]: 99%; inhibition in vivo at 1.6 mg/kg [2]: 100%

**Q.** For `CCC1(CCOc2ccnc(C[S+]([O-])c3nc4c(C)cccc4[nH]3)c2C)OCCO1` (stereo not drawn) [Example 41, 2-(((4-(2-(2-ethyl-1,3-dioxolan-2-yl)ethoxy)-3-methylpyridin-2-yl)methyl)sulfinyl)-4-methyl-1H-benzimidazole sodium salt], which inhibition in vivo at 1.6 mg/kg [1] is on record?
**A.** 85%

**Q.** What about the inhibition in vivo at 1.6 mg/kg [2] of the same compound?
**A.** 100%

**Q.** What does the source list for `CCC1(COc2ccnc(C[S+]([O-])c3nc4ccccc4[nH]3)c2C)OCCCO1` (stereo not drawn) [Example 42, 2-(((4-((2-ethyl-1,3-dioxan-2-yl)methoxy)-3-methylpyridin-2-yl)methyl)sulfinyl)-1H-benzimidazole sodium salt]?
**A.** inhibition in vivo at 0.8 mg/kg [1]: 72%; inhibition in vivo at 0.8 mg/kg [2]: 60%

**Q.** `Cc1c(OCC2OCC(F)(F)CO2)ccnc1C[S+]([O-])c1nc2ccccc2[nH]1` (stereo not drawn) [Example 46, 2-(((4-((5,5-difluoro-1,3-dioxan-2-yl)methoxy)-3-methylpyridin-2-yl)methyl)sulfinyl)-1H-benzimidazole sodium salt] was tested. Which inhibition in vivo at 0.8 mg/kg [1] did it give?
**A.** 95%

**Q.** What about the inhibition in vivo at 0.8 mg/kg [2] of the same compound?
**A.** 100%

**Q.** What does the source list for `Cc1ccc2[nH]c([S+]([O-])Cc3nccc(OCCC4COC(C)(C)O4)c3C)nc2c1` (stereo not drawn) [Example 47, 2-(((4-(2-(2,2-dimethyl-1,3-dioxolan-4-yl)ethoxy)-3-methylpyridin-2-yl)methyl)sulfinyl)-5-methyl-1H-benzimidazole sodium salt]?
**A.** inhibition in vivo at 1.6 mg/kg [1]: 87%; inhibition in vivo at 1.6 mg/kg [2]: 100%

**Q.** For `[O-][S+](Cc1cc(OCC2OCC3(CC3)CO2)ccn1)c1nc2ccccc2[nH]1` (stereo not drawn) [Example 50, 2-(((4-(5,7-dioxaspiro[2.5]oct-6-ylmethoxy)pyridin-2-yl)methyl)sulfinyl)-1H-benzimidazole sodium salt], which inhibition in vivo at 0.8 mg/kg [1] is on record?
**A.** 80%

**Q.** And the inhibition in vivo at 0.8 mg/kg [2]?
**A.** 79%

**Q.** What does the source list for `CCc1c(OCC2COC(C)(C)O2)ccnc1C[S+]([O-])c1nc2ccccc2[nH]1` (stereo not drawn) [Example 51, 2-(((4-((2,2-dimethyl-1,3-dioxolan-4-yl)methoxy)-3-ethylpyridin-2-yl)methyl)sulfinyl)-1H-benzimidazole sodium salt]?
**A.** inhibition in vivo at 1.6 mg/kg [1]: 83%; inhibition in vivo at 1.6 mg/kg [2]: 100%

**Q.** For `Cc1c(OCC2COC(C)(C)O2)ccnc1C[S+]([O-])c1nc2cc(F)ccc2[nH]1` (stereo not drawn) [Example 52, 2-(((4-((2,2-dimethyl-1,3-dioxolan-4-yl)methoxy)-3-methylpyridin-2-yl)methyl)sulfinyl)-5-fluoro-1H-benzimidazole sodium salt], which inhibition in vivo at 1.6 mg/kg [1] is on record?
**A.** 87%

**Q.** What about the inhibition in vivo at 1.6 mg/kg [2] of the same compound?
**A.** 100%

**Q.** Which inhibition in vivo at 0.8 mg/kg [1] does the source give for `Cc1c(OCC2COCOC2)ccnc1C[S+]([O-])c1nc2ccccc2[nH]1` (stereo not drawn) [Example 53, 2-(((4-(1,3-dioxan-5-ylmethoxy)-3-methylpyridin-2-yl)methyl)sulfinyl)-1H-benzimidazole sodium salt] here?
**A.** 87%

**Q.** And the inhibition in vivo at 0.8 mg/kg [2]?
**A.** 99%

**Q.** With `Cc1ccc2[nH]c([S+]([O-])Cc3nccc(OCC4COC(C)(C)OC4)c3C)nc2c1` (stereo not drawn) [Example 55, 2-(((4-((2,2-dimethyl-1,3-dioxan-5-yl)methoxy)-3-methylpyridin-2-yl)methyl)sulfinyl)-5-methyl-1H-benzimidazole sodium salt] as the compound, how does the inhibition in vivo at 0.8 mg/kg [1] read?
**A.** 75%

**Q.** And the inhibition in vivo at 0.8 mg/kg [2]?
**A.** 83%

**Q.** Which results are given for `Cc1cnc(C[S+]([O-])c2nc3cc(F)ccc3[nH]2)c(C)c1OCC1COC(C)(C)OC1` (stereo not drawn) [Example 56, 2-(((4-((2,2-dimethyl-1,3-dioxan-5-yl)methoxy)-3,5-dimethylpyridin-2-yl)methyl)sulfinyl)-5-fluoro-1H-benzimidazole sodium salt]?
**A.** inhibition in vivo at 0.8 mg/kg [1]: 74%; inhibition in vivo at 0.8 mg/kg [2]: 84%

**Q.** `[O-][S+](Cc1cc(OCC2COC3(CCC3)OC2)ccn1)c1nc2ccccc2[nH]1` (stereo not drawn) [Example 57, 2-(((4-(5,9-dioxaspiro[3.5]non-7-ylmethoxy)pyridin-2-yl)methyl)sulfinyl)-1H-benzimidazole sodium salt] was tested. Which inhibition in vivo at 0.8 mg/kg [1] did it give?
**A.** 83%

**Q.** What about the inhibition in vivo at 0.8 mg/kg [2] of the same compound?
**A.** 98%

**Q.** What does the source list for `[O-][S+](Cc1cc(OCC2COC3(CCCC3)OC2)ccn1)c1nc2ccccc2[nH]1` (stereo not drawn) [Example 58, 2-(((4-(6,10-dioxaspiro[4.5]dec-8-ylmethoxy)pyridin-2-yl)methyl)sulfinyl)-1H-benzimidazole sodium salt]?
**A.** inhibition in vivo at 0.8 mg/kg [1]: 77%; inhibition in vivo at 0.8 mg/kg [2]: 95%

**Q.** For `[O-][S+](Cc1cc(OCC2COC(CF)(CF)OC2)ccn1)c1nc2ccccc2[nH]1` (stereo not drawn) [Example 59, 2-(((4-((2,2-bis(fluoromethyl)-1,3-dioxan-5-yl)methoxy)pyridin-2-yl)methyl)sulfinyl)-1H-benzimidazole sodium salt], which inhibition in vivo at 0.8 mg/kg [1] is on record?
**A.** 77%

**Q.** What about the inhibition in vivo at 0.8 mg/kg [2] of the same compound?
**A.** 89%

**Q.** What does the source list for `[O-][S+](Cc1cc(OCC2COC3(CCOCC3)OC2)ccn1)c1nc2ccccc2[nH]1` (stereo not drawn) [Example 60, 2-(((4-(1,5,9-trioxaspiro[5.5]undec-3-ylmethoxy)pyridin-2-yl)methyl)sulfinyl)-1H-benzimidazole sodium salt]?
**A.** inhibition in vivo at 0.8 mg/kg [1]: 74%; inhibition in vivo at 0.8 mg/kg [2]: 89%

**Q.** Which inhibition in vivo at 1.6 mg/kg [1] does the source give for `Cc1c(OCC2COc3ccccc3O2)ccnc1C[S+]([O-])c1nc2ccccc2[nH]1` (stereo not drawn) [Example 61, 2-(((4-(2,3-dihydro-1,4-benzodioxin-2-ylmethoxy)-3-methylpyridin-2-yl)methyl)sulfinyl)-1H-benzimidazole sodium salt] here?
**A.** 90%

**Q.** And the inhibition in vivo at 1.6 mg/kg [2]?
**A.** 100%

**Q.** Which results are given for `Cc1c(OCCC2COC(C)(C)O2)ccnc1C[S+]([O-])c1nc2ccccc2[nH]1` (stereo not drawn) [Example 64, 2-(((4-(2-(2,2-dimethyl-1,3-dioxolan-4-yl)ethoxy)-3-methylpyridin-2-yl)methyl)sulfinyl)-1H-benzimidazole sodium salt]?
**A.** inhibition in vivo at 0.8 mg/kg [1]: 78%; inhibition in vivo at 0.8 mg/kg [2]: 100%

**Q.** For `CCC1(CC)OCC(COc2ccnc(C[S+]([O-])c3nc4ccccc4[nH]3)c2C)O1` (stereo not drawn) [Example 65, 2-(((4-((2,2-diethyl-1,3-dioxolan-4-yl)methoxy)-3-methylpyridin-2-yl)methyl)sulfinyl)-1H-benzimidazole sodium salt], which inhibition in vivo at 1.6 mg/kg [1] is on record?
**A.** 91%

**Q.** What about the inhibition in vivo at 1.6 mg/kg [2] of the same compound?
**A.** 100%

**Q.** What does the source list for `Cc1c(OCC2OCCO2)ccnc1C[S+]([O-])c1nc2ccccc2[nH]1` (stereo not drawn) [Example 66, 2-(((4-(1,3-dioxolan-2-ylmethoxy)-3-methylpyridin-2-yl)methyl)sulfinyl)-1H-benzimidazole sodium salt]?
**A.** inhibition in vivo at 1.6 mg/kg [1]: 79%; inhibition in vivo at 1.6 mg/kg [2]: 100%

**Q.** How did the inhibition in vivo at 1.6 mg/kg [1] turn out when `Cc1c(OCC2(C)OCCO2)ccnc1C[S+]([O-])c1nc2ccccc2[nH]1` (stereo not drawn) [Example 67, 2-(((3-methyl-4-((2-methyl-1,3-dioxolan-2-yl)methoxy)pyridin-2-yl)methyl)sulfinyl)-1H-benzimidazole sodium salt] was run?
**A.** 83%

**Q.** And the inhibition in vivo at 1.6 mg/kg [2]?
**A.** 100%

**Q.** With `Cc1c(OCCC2(C)OCCO2)ccnc1C[S+]([O-])c1nc2ccccc2[nH]1` (stereo not drawn) [Example 69, 2-(((3-methyl-4-(2-(2-methyl-1,3-dioxolan-2-yl)ethoxy)pyridin-2-yl)methyl)sulfinyl)-1H-benzimidazole sodium salt] as the compound, how does the inhibition in vivo at 1.6 mg/kg [1] read?
**A.** 78%

**Q.** And the inhibition in vivo at 1.6 mg/kg [2]?
**A.** 100%
